This data set in a line: Human HepG2 cell viability assay in 384 well format. Further details: dose 125 nL, time 70.5 hour; concentration not given beside the values. The data set is classed as toxicity, cell-based. The settings on record: HepG2 cells, read-out: Inhibition.
For `Cc1nn(C)cc1-c1ccnc(N2CCCN(CC(C)C)CC2)n1`, the cytotoxicity at 70.5 h is -6.83%.

Regarding `Cc1cc(CNC(=O)c2cc(NC(=O)C(C)C)ccc2Cl)no1`, the cytotoxicity at 70.5 h came to 13.5%.

Regarding `CCCS(=O)(=O)N1CC[C@H]2O[C@H](c3nnc(C)o3)CC[C@H]21`, the cytotoxicity at 70.5 h came to 11.3%.

Consider `NC(=O)N1CC(OCc2cccc3ccccc23)C1`, for which the cytotoxicity at 70.5 h worked out at 2.87%.

Turning to `CNC(=O)c1ccc(-n2c(COCC(=O)O)nc3c(C)cccc32)o1`, the cytotoxicity at 70.5 h was -1.45%.

Take `O=C(Cc1cnn(-c2ccccc2)n1)NC1CCOCC1`: the cytotoxicity at 70.5 h is -0.727%.

`O=C(CCn1cccn1)N1CCC(c2nnc(-c3ccccn3)o2)CC1`: the cytotoxicity at 70.5 h stood at 3.01%.

For the molecule `CNC(=O)CS(=O)(=O)Cc1coc(-c2cccc(F)c2)n1`, the cytotoxicity at 70.5 h was -8.64%.

Consider `COCCN(Cc1nccs1)C(=O)c1cc(-c2ccc(C)s2)n[nH]1`, for which the cytotoxicity at 70.5 h was -5.54%.

Regarding `OC(CN1CCN(Cc2ccc(F)cc2)CC1)C1CC1` (configuration not stated), the cytotoxicity at 70.5 h is -1.06%.

Take `Cc1cnn(C2CN(CC(=O)NCC3(c4ccccc4)CCC3)C2)c1`: the cytotoxicity at 70.5 h was -2.82%.

`COc1cc(F)ccc1-c1cc(N)ccn1`: the cytotoxicity at 70.5 h was -0.436%.

Consider `O=C(NCCc1ccn(-c2ccccc2)n1)N1CCSCC1`, for which the cytotoxicity at 70.5 h was found to be 22.7%.

In the case of `CN(C)CCN1CCCC12CCN(C(=O)c1cccn1C)CC2`, the cytotoxicity at 70.5 h was -15.1%.

On to `CC(=O)N1CCN2C(=O)N(Cc3ccc(F)cc3)C[C@H]2C1`, for which the cytotoxicity at 70.5 h is -13%.

As for `Cc1nnc(C(C)N2CCN(Cc3noc(C(C)(C)C)n3)CC2)o1` (configuration not stated), the cytotoxicity at 70.5 h is -3.37%.

On to `CC(=O)N1C[C@H]2CCCN(Cc3ccc(C)o3)[C@H]2C1`, for which the cytotoxicity at 70.5 h is -10.5%.

Take `O=C(Nc1ccccc1)[C@H]1CN2CCC1C[C@@H]2Cn1cc(CO)nn1` (some centres not stated): the cytotoxicity at 70.5 h is -9.02%.

As to `CS(=O)(=O)N[C@@H]1CCO[C@]2(CCN(C(=O)C3=CCCC3)C2)C1`, the cytotoxicity at 70.5 h was -10%.

For `O=C(CCN1CCCN(c2nccs2)CC1)NCC1CCCCC1`, the cytotoxicity at 70.5 h was -8.1%.

Regarding `Cc1nnc(CN(C)C2CCN(CCc3ccccn3)CC2)o1`, the cytotoxicity at 70.5 h is -4.31%.

Take `Cc1ccc(N2CCCC(NC(=O)Cc3csc(C)n3)C2=O)cc1` (configuration not stated): the cytotoxicity at 70.5 h was -0.932%.

For `COc1ccccc1OC1CCN(C(=O)CCCN2CCOCC2)CC1`, the cytotoxicity at 70.5 h is -9.29%.

In the case of `COc1cc2c(c(OC)c1OC)CCN(CCn1cncn1)CC2`, the cytotoxicity at 70.5 h is -8.44%.

As to `c1cnn(CC2CN(c3ncnc4ccsc34)CCO2)c1` (configuration not stated), the cytotoxicity at 70.5 h was -0.0557%.

Take `CN(C)CC1CSCCCN1C(=O)c1ccc(-c2ccccc2)cc1` (configuration not stated): the cytotoxicity at 70.5 h is -0.605%.

As for `CC(C)(C)c1cnc(CNc2cccc(Cn3cnnc3)c2)o1`, the cytotoxicity at 70.5 h is -2.54%.

Turning to `CNC(=O)c1ccc(OC)c(NCc2ncc(-c3cccs3)o2)c1`, the cytotoxicity at 70.5 h was -92.5%.

On to `O=C1OCCN1CC(=O)N1C[C@H]2CC[C@@H]1CN(C(=O)c1ccccn1)C2`, for which the cytotoxicity at 70.5 h is -7.06%.

On to `CN1CCN(CC2(O)CCCN(S(=O)(=O)c3cn[nH]c3)CC2)CC1` (configuration not stated), for which the cytotoxicity at 70.5 h was -3.77%.

For `N#Cc1cccnc1NCc1cccnc1N1CCCCC1`, the cytotoxicity at 70.5 h was 4.49%.

Consider `Cc1cc(C)n(-c2ccc(C(=O)NCC(c3cccs3)N(C)C)cc2)n1` (configuration not stated), for which the cytotoxicity at 70.5 h is -4.5%.

`CCc1ncc(C(=O)N2CCOCC2CC(=O)c2ccccc2)s1` (configuration not stated): the cytotoxicity at 70.5 h is -5.53%.

As to `Cc1cccc(CN2CCc3ncnc(N4CCCC4)c3CC2)n1`, the cytotoxicity at 70.5 h was -2.78%.

Take `Cn1cccc1C(=O)N1CCO[C@H]2[C@H](OCc3cccnc3)CC[C@@H]21`: the cytotoxicity at 70.5 h was -7.88%.

On to `COC(=O)CC1CCN(C(=O)Nc2ccc(-c3ccn[nH]3)cc2)C1` (configuration not stated), for which the cytotoxicity at 70.5 h amounted to 1.65%.

On to `Cc1ccc(N2CCc3c(CN(C)Cc4ccco4)cncc3C2)nn1`, for which the cytotoxicity at 70.5 h was -9.85%.

Turning to `O=C(CN1CCOC(Cn2cccn2)C1)Nc1ccncc1` (configuration not stated), the cytotoxicity at 70.5 h was -3.63%.

As to `CS(=O)(=O)CC1(CNc2c(C#N)cnc3ccc(Cl)cc23)CC1`, the cytotoxicity at 70.5 h was -5.19%.

For the molecule `Cc1ccc(S(=O)(=O)Cc2noc([C@@H]3C[C@@H](O)CN3)n2)cc1`, the cytotoxicity at 70.5 h is -3.28%.

With `O=C(NCCN1CCOCC1)C1=NOC2(CCN(Cc3nccs3)C2)C1` (configuration not stated), the cytotoxicity at 70.5 h was -17.4%.

`N#Cc1cccc(S(=O)(=O)NC(=O)COC2CCCC2)c1`: the cytotoxicity at 70.5 h stood at 11.3%.

`Cc1noc(C)c1CN1CCc2ncnc(-c3cnn(C)c3)c2CC1`: the cytotoxicity at 70.5 h was -8.16%.

On to `Cc1ccc(C(=O)NC2CCN(S(C)(=O)=O)CC2)c(=O)[nH]1`, for which the cytotoxicity at 70.5 h is -14.3%.

For `Cn1cc(CN2C[C@@H]3COC[C@]3(COCC3CC3)C2)cn1`, the cytotoxicity at 70.5 h was -5.3%.

For `CN(Cc1c(F)cccc1Cl)C(=O)Cn1cnc(C#N)n1`, the cytotoxicity at 70.5 h was -7.04%.

As for `NC(=O)C1CCN(C(=O)NCc2ccccc2Cn2ccnc2)CC1`, the cytotoxicity at 70.5 h was -6.43%.

`Cc1cnn(C2CCCN(C(=O)c3cc(C4CC4)on3)C2)c1` (configuration not stated): the cytotoxicity at 70.5 h was -4.84%.

As for `CCN(CCn1cccn1)Cc1nc(-c2ccccc2F)oc1C`, the cytotoxicity at 70.5 h is -7.43%.

With `Cc1cc(C2CCCN2C(=O)COc2ccc(CC#N)cc2)on1` (configuration not stated), the cytotoxicity at 70.5 h was -9.16%.

For `COc1cccc(COCC(=O)N2CCCC2Cn2cccn2)c1` (configuration not stated), the cytotoxicity at 70.5 h is -11.8%.

For `c1coc(CN2CCC3(CC2)CC(N2CCCC2)CO3)c1` (configuration not stated), the cytotoxicity at 70.5 h stood at 33.2%.

For the molecule `CCc1ccc(S(=O)(=O)Nc2cc(C(=O)O)ccc2F)s1`, the cytotoxicity at 70.5 h is -3.74%.

`CC(=O)c1c(F)cccc1NCC(O)C(C)(C)C` (configuration not stated): the cytotoxicity at 70.5 h was -11.2%.

For the molecule `COc1ccc2c(c1)OCC(CNC(=O)c1ccc(=O)n(C)c1)C2` (configuration not stated), the cytotoxicity at 70.5 h was -10%.

As to `CSc1ncccc1C(=O)N1C[C@H]2CC[C@@H]1CN(CC(=O)N(C)C)C2`, the cytotoxicity at 70.5 h came to 45.6%.

As for `CN(Cc1cccs1)C1CCC[C@@H]2CN(C(N)=O)C[C@H]12` (some centres not stated), the cytotoxicity at 70.5 h is -10.5%.

In the case of `Cc1ccc(CNC(=O)CN2CCCCC2Cn2cncn2)s1` (configuration not stated), the cytotoxicity at 70.5 h was -7.67%.

In the case of `Cc1nc(CN2CCN(C(=O)CCC(=O)c3ccccc3)CC2)no1`, the cytotoxicity at 70.5 h was determined as 12.6%.

In the case of `CN1C(=O)CC[C@]12CC[C@@H](NCc1ccsc1)CC2`, the cytotoxicity at 70.5 h is -5.76%.

As to `Cc1ccc(-c2noc(CN3CCn4c(nnc4C4CC4)C3)n2)cc1`, the cytotoxicity at 70.5 h is -16%.

As for `COc1ccc(C2CCCN2C(=O)NCCCn2cccn2)cc1` (configuration not stated), the cytotoxicity at 70.5 h is -11%.

With `CCCn1cc(-c2ccnc(NC3CCCc4ccccc43)n2)c(C)n1` (configuration not stated), the cytotoxicity at 70.5 h worked out at 18.9%.

Take `O=C(COc1coc(CN2CCCCC2)cc1=O)c1ccc(Cl)cc1`: the cytotoxicity at 70.5 h was -23.2%.

For the molecule `CN(C)c1ncc(-c2cc(C(=O)N3CCCC3)n(CC3CC3)c2)cn1`, the cytotoxicity at 70.5 h is -11%.

With `CCCC1(NC(=O)C(c2ccc(F)cc2)N(C)C)CC1` (configuration not stated), the cytotoxicity at 70.5 h amounted to 10.6%.

Regarding `N[C@@H]1CC[C@H](C(=O)NCCc2nc(-c3ccccc3)cs2)C1`, the cytotoxicity at 70.5 h is -1.72%.

Take `CCc1noc(C(C)N2CCN(c3ccc(C#N)cn3)CC2)n1` (configuration not stated): the cytotoxicity at 70.5 h was -2.7%.

Take `CCOCCN1CCn2c(C)nnc2C1`: the cytotoxicity at 70.5 h was 16.1%.

On to `CNC(=O)[C@@H]1C[C@H]2CN(Cc3nccs3)C[C@H]2N1C`, for which the cytotoxicity at 70.5 h came to 6.13%.

As for `CCN1CC2(CCN(C(=O)C(C)Oc3ccc(F)cc3Cl)CC2)CC1=O` (configuration not stated), the cytotoxicity at 70.5 h was 25%.

With `COc1ccc(OCc2nc3cc4c(cc3c(=O)o2)OCCCO4)cc1`, the cytotoxicity at 70.5 h was -5.23%.

`Fc1ccc(CN2CCO[C@H]3[C@H](OCCN4CCCC4)CC[C@@H]32)cc1`: the cytotoxicity at 70.5 h is -5.14%.

For the molecule `CCn1ccnc1CNC1CC(=O)N(CCc2cccc(Cl)c2)C1` (configuration not stated), the cytotoxicity at 70.5 h was -2.81%.

For `CC(=O)CN1CCC2(CC1)c1ccccc1[C@@H](N1CCSCC1)[C@@H]2O`, the cytotoxicity at 70.5 h is -5.27%.

Turning to `O=S1(=O)CCN(c2nc(C3CC3)ns2)CC1`, the cytotoxicity at 70.5 h is -5.98%.

On to `O=C(c1ccccc1)N1CCC[C@]2(C[C@@H](OCc3ccccn3)CO2)C1`, for which the cytotoxicity at 70.5 h is -13.1%.

Consider `c1cnn(Cc2nnc3n2CCCN(CC2CCOCC2)C3)c1`, for which the cytotoxicity at 70.5 h was -2.91%.

`CCC(NC(=O)NCC(=O)NC(C)C)c1cc(F)ccc1F` (configuration not stated): the cytotoxicity at 70.5 h is -3.83%.

On to `Cc1noc([C@H]2C[C@H]3OCC[C@H]3N(C3CCC3)C2)n1`, for which the cytotoxicity at 70.5 h was determined as 24.7%.

In the case of `COc1ccc(Cl)cc1-c1cc(NC(=O)CNC(=O)C2CC2)[nH]n1`, the cytotoxicity at 70.5 h was -7.16%.

For `O=C(NC[C@H]1OC[C@@H](NC2COC2)[C@@H]1O)c1ccccc1`, the cytotoxicity at 70.5 h was -6.48%.

As to `O=C(Nc1cc(F)ccc1OCC1CCCO1)NC1CC1` (configuration not stated), the cytotoxicity at 70.5 h was -8.4%.

Turning to `CC(C)c1ncc(C(=O)N(C)c2ccc(Br)cn2)s1`, the cytotoxicity at 70.5 h was 5.45%.

For the molecule `O=C(NCCC1CN(C2CCCC2)CCO1)c1c[nH]c(=O)[nH]c1=O` (configuration not stated), the cytotoxicity at 70.5 h was -12.3%.

`Cc1cc(NC(=O)CN2CCOC(Cn3cccn3)C2)n(C)n1` (configuration not stated): the cytotoxicity at 70.5 h is 8.66%.

On to `FC(F)(F)c1ccc(CN2CCN(Cc3cscn3)CC2)cc1`, for which the cytotoxicity at 70.5 h is -12.5%.

Turning to `CC(C)CC(NC(=O)c1cccs1)c1nc2cccnc2n1C` (configuration not stated), the cytotoxicity at 70.5 h was -5.14%.

`CC(C)c1noc(CC[C@@H]2CCCN3CCCC[C@H]23)n1`: the cytotoxicity at 70.5 h was -0.439%.

As for `CC(C)[C@H](NS(C)(=O)=O)C(=O)NCc1cc(-c2cccc(Cl)c2)nn1C`, the cytotoxicity at 70.5 h amounted to 6.72%.

Consider `CCn1nc(C)c(C(=O)NCc2csc(C3CC3)n2)c1C`, for which the cytotoxicity at 70.5 h worked out at 1.51%.

Turning to `CSCc1noc(CNC(=O)C2CCN(C3CCCCC3)CC2)n1`, the cytotoxicity at 70.5 h is -21.4%.

In the case of `COc1ccc(NC(=O)c2cccc(OC)c2OC)cc1`, the cytotoxicity at 70.5 h was -3.77%.

Take `CN(C)C(=O)CN1C[C@@H]2CC[C@H](C1)N(C/C=C/c1ccc(F)cc1)C2`: the cytotoxicity at 70.5 h is -0.0436%.

Consider `Cc1cnn(CC2CCCN2Cc2noc(CC(C)C)n2)c1` (configuration not stated), for which the cytotoxicity at 70.5 h was -0.847%.

For the molecule `CN(Cc1nnc(C2CC2)n1C)C1CCN(Cc2ccccc2F)C1` (configuration not stated), the cytotoxicity at 70.5 h is -2.35%.

For `CCCC(C)(O)c1cc(C(N)=O)no1` (configuration not stated), the cytotoxicity at 70.5 h is -9.46%.

The values are drawn from ChEMBL document CHEMBL3507680, “University of Dundee, Gates Library screen for HepG2 cell viability”.
